Source: patent EP4745134A1 (Jiangsu Yahong Meditech Co., Ltd., priority 2023, dated 2025)
Where two headings read alike, the source gives them in different places.

Key:
[1] = target: PRMT5-MTA (Homo sapiens, UniProt O14744); assay: Enzymatic inhibitory activity against PRMT5-MTA (AlphaScreen); format: biochemical
Outline: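 PRMT5/[…] (1 nM) was preincubated for 30 min at room temperature with 1 µM […] and 2.5 µM SAM, then exposed to compound (10-point, 3-fold from 1000 nM) for 15 min at 23 °C. Histone H4 substrate (5 nM) was added and reacted for 45 min at 23 °C. Symmetric dimethyl-R3 H4 was detected by AlphaScreen and IC50 calculated.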

[2] = system: HCT116 MTAP KO cells; assay: Inhibitory activity against cell proliferation (CellTiter Glo, 6 days), HCT116 MTAP KO; format: cell-based; settings: for IC50: HCT116 MTAP KO cells, 6 days, CellTiter Glo, read-out: HCT116 MTAP KO IC50; for Selectivity HCT 116-WT/ HCT116 MTAP KO: ratio of IC50 HCT116-WT / HCT116 MTAP KO
Outline: (§1)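 HCT116 wild-type or MTAP-knockout cells (250/well, McCoy's 5A + 10% FBS) treated after overnight culture with 8-point 4-fold dilutions from 10000 nM for 6 days at 37 °C. Viability read by CellTiter Glo luminescence on day 7; IC50 calculated against DMSO controls.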

[3] = system: HCT116-WT cells; assay: Inhibitory activity against cell proliferation (CellTiter Glo, 6 days), HCT116-WT; format: cell-based; settings: HCT116-WT cells, 6 days, CellTiter Glo, read-out: HCT116-WT IC50
Outline: as §1

PRMT5-MTA, sequence (O14744 whole entry): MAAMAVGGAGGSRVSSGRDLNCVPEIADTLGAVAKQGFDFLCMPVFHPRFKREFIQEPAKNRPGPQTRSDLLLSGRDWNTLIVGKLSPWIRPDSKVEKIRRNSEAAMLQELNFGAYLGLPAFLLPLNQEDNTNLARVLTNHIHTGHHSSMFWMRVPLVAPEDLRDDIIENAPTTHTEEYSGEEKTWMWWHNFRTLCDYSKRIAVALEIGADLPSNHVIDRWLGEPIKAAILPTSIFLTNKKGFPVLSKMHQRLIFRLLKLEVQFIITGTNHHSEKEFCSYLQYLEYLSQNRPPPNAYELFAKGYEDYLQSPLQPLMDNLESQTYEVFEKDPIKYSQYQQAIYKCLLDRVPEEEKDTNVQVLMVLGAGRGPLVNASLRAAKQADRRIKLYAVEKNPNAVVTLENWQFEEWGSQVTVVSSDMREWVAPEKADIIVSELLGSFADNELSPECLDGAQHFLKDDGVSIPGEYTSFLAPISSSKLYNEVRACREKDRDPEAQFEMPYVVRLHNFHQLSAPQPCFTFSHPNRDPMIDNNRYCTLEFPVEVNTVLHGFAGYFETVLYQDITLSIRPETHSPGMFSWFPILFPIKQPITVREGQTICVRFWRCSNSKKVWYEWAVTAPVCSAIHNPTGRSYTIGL
PRMT5-MTA, sequence (Q9BQA1 whole entry partner): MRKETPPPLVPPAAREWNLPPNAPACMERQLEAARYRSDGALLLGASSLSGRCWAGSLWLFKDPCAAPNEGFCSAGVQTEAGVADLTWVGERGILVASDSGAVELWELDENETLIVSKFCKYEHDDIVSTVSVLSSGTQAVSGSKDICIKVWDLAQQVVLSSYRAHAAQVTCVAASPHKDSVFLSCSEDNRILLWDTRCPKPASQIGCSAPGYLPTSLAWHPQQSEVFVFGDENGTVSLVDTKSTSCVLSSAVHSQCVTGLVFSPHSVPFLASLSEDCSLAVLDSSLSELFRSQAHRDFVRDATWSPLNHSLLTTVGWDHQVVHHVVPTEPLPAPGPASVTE

With `Cc1cc2nc(N)c3cnn(C)c3c2cc1C(=O)N1C[C@@H](C)CN1c1ncccc1F` (single isomer, unassigned) [Example 464] the IC50 ([1]; read-out: IC50) was 3.1 nM, the IC50 ([2]; Homo sapiens, HCT-116, 144 h) was 17 nM and the “Selectivity HCT 116-WT/ HCT116 MTAP KO” value [2] was 64.06. For the same compound, the IC50 ([3]; 144 h) was 1090 nM.
In the case of `Cc1cc2nc(N)c3cnn(C)c3c2cc1C(=O)N1C[C@H](C)CN1c1ncccc1F` (single isomer, unassigned) [Example 465], the IC50 ([1]; read-out: IC50) is reported as 3.4 nM, the IC50 ([2]; Homo sapiens, HCT-116, 144 h) is reported as 23 nM and the “Selectivity HCT 116-WT/ HCT116 MTAP KO” value [2] is reported as 45.35. The IC50 ([3]; 144 h) was 1040 nM.
For `CC1CN(C(=O)c2cc3c(cc2F)nc(N)c2cnn(C)c23)N(c2ncccc2F)C1` (single isomer, unassigned) [Example 466], the IC50 ([1]; read-out: IC50) was 4.4 nM, the IC50 ([2]; Homo sapiens, HCT-116, 144 h) was 13 nM and the “Selectivity HCT 116-WT/ HCT116 MTAP KO” value [2] was 50.77. The IC50 ([3]; 144 h) was 660 nM.
With `Cc1cc2cc(C(=O)N(Cc3ccc(C(F)(F)F)cn3)N(C)c3c(F)cccc3F)ccc2nc1N` [Compound 116, 2-amino-N'-(2,6-difluorophenyl)-N',3-di methyl-N-((5-(trifluoromethyl)pyridin-2-yl)methyl)quinoline-6-carbohydrazide] the IC50 ([1]; read-out: IC50) was 4.7 nM, the IC50 ([2]; Homo sapiens, HCT-116, 144 h) was 78 nM and the “Selectivity HCT 116-WT/ HCT116 MTAP KO” value [2] was 37.85. It also gave an IC50 ([3]; 144 h) of 2950 nM.
With `Cc1cc2cc(C(=O)N(Cc3ccc(C(F)(F)F)cn3)N(C)c3ncc4[nH]ccc4n3)ccc2nc1N` [Compound 120, 2-amino-N',3-dimethyl-N'-(5H-pyrrolo[3,2-d]pyrimidin-2-yl)-N-((5-(trifluoromethyl)pyridin-2-yl)methyl)quinoline-6-carbo hydrazide] the IC50 ([1]; read-out: IC50) was 2.5 nM, the IC50 ([2]; Homo sapiens, HCT-116, 144 h) was 10 nM and the “Selectivity HCT 116-WT/ HCT116 MTAP KO” value [2] was 17.00. It also gave an IC50 ([3]; 144 h) of 170 nM.
In the case of `Cc1cc2cc(C(=O)N(Cc3ccc(C(F)(F)F)cn3)N(C)c3ncc4c(ccn4C)n3)ccc2nc1N` [Compound 127, 2-amino-N',3-dimethyl-N'-(5-methyl-5H-pyrrolo[3,2-d]pyrimidin-2-yl)-N-((5-(trifluoromethyl)pyridin-2-yl)methyl)quinoline-6-carbohydrazide], the IC50 ([1]; read-out: IC50) is reported as 4.9 nM, the IC50 ([2]; Homo sapiens, HCT-116, 144 h) is reported as 115 nM and the “Selectivity HCT 116-WT/ HCT116 MTAP KO” value [2] is reported as 16.55. It also gave an IC50 ([3]; 144 h) of 1900 nM.
In the case of `Cc1cc2cc(C(=O)N(Cc3ccc(N4CC(F)(F)C4)cn3)N(C)c3ncccn3)ccc2nc1N` [Compound 225, 2-amino-N-((5-(3,3-difluoroazetidin-1-yl)pyridin-2-yl)methyl)-N',3-dimethyl-N'-(pyrimidin-2-yl)quinoline-6-carbohydrazide], the IC50 ([1]; read-out: IC50) is reported as 16 nM, the IC50 ([2]; Homo sapiens, HCT-116, 144 h) is reported as 204 nM and the “Selectivity HCT 116-WT/ HCT116 MTAP KO” value [2] is reported as 13.00. It also gave an IC50 ([3]; 144 h) of 2650 nM.
With `Cc1cc2cc(C(=O)N(Cc3ccc4ncccc4n3)N(C)c3ncccn3)ccc2nc1N` [Compound 283, N-((1,5-naphthyridin-2-yl)methyl)-2-ami no-N',3-dimethyl-N'-(pyrimidin-2-yl)qui noline-6-carbohydrazide] the IC50 ([1]; read-out: IC50) was 1.7 nM, the IC50 ([2]; Homo sapiens, HCT-116, 144 h) was 244 nM and the “Selectivity HCT 116-WT/ HCT116 MTAP KO” value [2] was 11.11. The IC50 ([3]; 144 h) was 2710 nM.
In the case of `Cc1cnc(N2CC(C)CN2C(=O)c2cc3c(cc2C)nc(N)c2cnn(C)c23)c(F)c1` (stereo not shown) [Compound 490, (4-amino-1,7-dimethyl-1H-pyrazolo[4,3-c]quinolin-8-yl)(2-(3-fluoro-5-methylpyridin-2-yl)-4-methylpyrazolidin-1-yl)metha none], the IC50 ([1]; read-out: IC50) is reported as 5.1 nM, the IC50 ([2]; Homo sapiens, HCT-116, 144 h) is reported as 26 nM and the “Selectivity HCT 116-WT/ HCT116 MTAP KO” value [2] is reported as 38.96. The IC50 ([3]; 144 h) was 1010 nM.
For `[2H]C([2H])([2H])n1ncc2c(N)nc3cc(Cl)c(C(=O)N4CC(C)CN4c4ncccc4F)cc3c21` (stereo not shown) [Compound 508, (4-amino-7-chloro-1-(methyl-D3)-1H-pyrazolo[4,3-c]quinolin-8-yl)(2-(3-fluoropyridin-2-yl)-4-methylpyrazolidin-1-yl)meth anone], the IC50 ([1]; read-out: IC50) was 16.6 nM, the IC50 ([2]; Homo sapiens, HCT-116, 144 h) was 114 nM and the “Selectivity HCT 116-WT/ HCT116 MTAP KO” value [2] was 23.78. The IC50 ([3]; 144 h) was 2710 nM.
For `[2H]C([2H])([2H])N(c1ncccn1)N(Cc1ccc(C(F)(F)F)cn1)C(=O)c1ccc2nc(N)c(C)cc2c1` [Example 2, 2-amino-3-methyl-N'-(methyl-d3)-N'-(pyrimidin-2-yl)-N-((5-(trifluoromethyl)pyridin-2-yl)methyl)quinoline-6-carbohydrazide], the IC50 ([1]; read-out: IC50) was 2.1 nM, the IC50 ([2]; Homo sapiens, HCT-116, 144 h) was 30 nM and the “Selectivity HCT 116-WT/ HCT116 MTAP KO” value [2] was 27.33. For the same compound, the IC50 ([3]; 144 h) was 820 nM.
`Cc1cc2cc(C(=O)N(Cc3ccc(C(F)(F)F)cn3)N(C)c3ncccc3F)ccc2nc1N` [Example 5, 2-amino-N'-(3-fluoropyridin-2-yl)-N',3-di methyl-N-((5-(trifluoromethyl)pyridin-2-yl)methyl)quinoline-6-carbohydrazide] was tested, and the IC50 ([1]; read-out: IC50) was 1.5 nM, the IC50 ([2]; Homo sapiens, HCT-116, 144 h) was 42 nM and the “Selectivity HCT 116-WT/ HCT116 MTAP KO” value [2] was 20.29. The IC50 ([3]; 144 h) was 852 nM.
For `CCN(c1ncccn1)N(Cc1ccc(C(F)(F)F)cn1)C(=O)c1ccc2nc(N)c(C)cc2c1` [Example 6, 2-amino-N'-ethyl-3-methyl-N'-(pyrimidin-2-yl)-N-((5-(trifluoromethyl)pyridin-2-yl)methyl)quinoline-6-carbohydrazide], the IC50 ([1]; read-out: IC50) was 1.5 nM, the IC50 ([2]; Homo sapiens, HCT-116, 144 h) was 95 nM and the “Selectivity HCT 116-WT/ HCT116 MTAP KO” value [2] was 14.55. The IC50 ([3]; 144 h) was 1380 nM.
For `CN(c1ccccc1)N(Cc1ccc(C(F)(F)F)cn1)C(=O)c1ccc2nc(N)c3cnn(C)c3c2c1` [Example 15, 4-amino-N',1-dimethyl-N'-phenyl-N-((5-(trifluoromethyl)pyridin-2-yl)methyl)-1H-pyrazolo[4,3-c]quinoline-8-carbohydrazide], the IC50 ([1]; read-out: IC50) was 3.7 nM, the IC50 [2] was 26 nM and the “Selectivity HCT 116-WT/ HCT116 MTAP KO” value [2] was 18.27. It also gave an IC50 [3] of 475 nM.
In the case of `Cc1cc2cc(C(=O)N(Cc3ccc(C(F)(F)F)cn3)n3ccc4cccnc43)ccc2nc1N` [Example 21, 2-amino-3-methyl-N-(1H-pyrrolo[2,3-b]pyridin-1-yl)-N-((5-(trifluoromethyl)pyridin-2-yl)methyl)quinoline-6-carboxamide], the IC50 ([1]; read-out: IC50) is reported as 1.9 nM, the IC50 ([2]; Homo sapiens, HCT-116, 144 h) is reported as 85 nM and the “Selectivity HCT 116-WT/ HCT116 MTAP KO” value [2] is reported as 27.53. For the same compound, the IC50 ([3]; 144 h) was 2340 nM.
In the case of `Cc1cc2cc(C(=O)N(Cc3ccc(C(F)(F)F)cn3)N3CCc4cccnc43)ccc2nc1N` [Example 22, 2-amino-N-(2,3-dihydro-1H-pyrrolo[2,3-b]pyridin-1-yl)-3-methyl-N-((5-(trifluoromethy 1)pyridin-2-yl)methyl)quinoline-6-carboxamide], the IC50 ([1]; read-out: IC50) is reported as 4.3 nM, the IC50 ([2]; Homo sapiens, HCT-116, 144 h) is reported as 129 nM and the “Selectivity HCT 116-WT/ HCT116 MTAP KO” value [2] is reported as 17.78. The IC50 ([3]; 144 h) was 2290 nM.
In the case of `CN(c1ncccn1)N(Cc1ccc(C(F)(F)F)cn1)C(=O)c1ccc2nc(N)c(C3CC3)cc2c1` [Example 25, 2-amino-3-cyclopropyl-N'-methyl-N'-(pyrimidin-2-yl)-N-((5-(trifluoromethyl)pyridin-2-yl)methyl)quinoline-6-carbohydrazide], the IC50 ([1]; read-out: IC50) is reported as 2 nM, the IC50 ([2]; Homo sapiens, HCT-116, 144 h) is reported as 110 nM and the “Selectivity HCT 116-WT/ HCT116 MTAP KO” value [2] is reported as 25.64. The IC50 ([3]; 144 h) was 2820 nM.
In the case of `CC(C)c1cc2cc(C(=O)N(Cc3ccc(C(F)(F)F)cn3)N(C)c3ncccn3)ccc2nc1N` [Example 26, 2-amino-3-isopropyl-N'-methyl-N'-(pyrimidin-2-yl)-N-((5-(trifluoromethyl)pyridin-2-yl)methyl)quinoline-6-carbohydrazide], the IC50 ([1]; read-out: IC50) is reported as 2.4 nM, the IC50 ([2]; Homo sapiens, HCT-116, 144 h) is reported as 444 nM and the “Selectivity HCT 116-WT/ HCT116 MTAP KO” value [2] is reported as 20.73. It also gave an IC50 ([3]; 144 h) of 9200 nM.
`CN(C(=O)c1cc2c(cc1F)nc(N)c1cnn(C)c12)N1CCc2nc(Br)ccc21` [Example 32, 4-amino-N-(5-bromo-2,3-dihydro-1H-pyrrolo[3,2-b]pyridin-1-yl)-7-fluoro-N,1-dimethy 1-1H-pyrazolo[4,3-c]quinoline-8-carboxamide] was tested, and the IC50 [1] was 2.5 nM, the IC50 ([2]; Homo sapiens, HCT-116, 144 h) was 122 nM and the “Selectivity HCT 116-WT/ HCT116 MTAP KO” value [2] was 29.85. The IC50 ([3]; 144 h) was 3640 nM.
With `Cc1cc2cc(C(=O)N(Cc3ccc(C(F)(F)F)cn3)N(C)c3nccs3)ccc2nc1N` [Example 33, 2-amino-N',3-dimethyl-N'-(thiazol-2-yl)-N-((5-(trifluoromethyl)pyridin-2-yl)methyl)quinoline-6-carbohydrazide] the IC50 ([1]; read-out: IC50) was 3.3 nM, the IC50 ([2]; Homo sapiens, HCT-116, 144 h) was 125 nM and the “Selectivity HCT 116-WT/ HCT116 MTAP KO” value [2] was 19.87. It also gave an IC50 ([3]; 144 h) of 2480 nM.
For `Cc1cc2cc(C(=O)N(Cc3ccc(C(F)(F)F)cn3)N(C)c3cnccn3)ccc2nc1N` [Example 34, 2-amino-N',3-dimethyl-N'-(pyrazin-2-yl) -N-((5-(trifluoromethyl)pyridin-2-yl)methyl)quinoline-6-carbohydrazide], the IC50 ([1]; read-out: IC50) was 1.5 nM, the IC50 ([2]; Homo sapiens, HCT-116, 144 h) was 58 nM and the “Selectivity HCT 116-WT/ HCT116 MTAP KO” value [2] was 21.90. It also gave an IC50 ([3]; 144 h) of 1270 nM.
`COc1cnc(N(C)N(Cc2ccc(C(F)(F)F)cn2)C(=O)c2ccc3nc(N)c(C)cc3c2)nc1` [Example 39, 2-amino-N'-(5-methoxypyrimidin-2-yl)-N',3-dimethyl-N-((5-(trifluoromethyl)pyridin-2-yl)methyl)quinoline-6-carbohydrazide] was tested, and the IC50 ([1]; read-out: IC50) was 2.7 nM, the IC50 ([2]; Homo sapiens, HCT-116, 144 h) was 235 nM and the “Selectivity HCT 116-WT/ HCT116 MTAP KO” value [2] was 15.95. It also gave an IC50 ([3]; 144 h) of 3750 nM.
With `Cc1cc2nc(N)c3cnn(C)c3c2cc1C(=O)N1CCCN1c1ncc(C2CCN(C)CC2)cc1F` [Example 485, (4-amino-1,7-dimethyl-1H-pyrazolo[4,3-c]quinolin-8-yl)(2-(3-fluoro-5-(1-methylpiperid-4-yl)pyridin-2-yl)pyrazolidin-1-yl)methanone] the IC50 ([2]; Homo sapiens, HCT-116, 144 h) was 415 nM, the “Selectivity HCT 116-WT/ HCT116 MTAP KO” value [2] was 11.64 and the IC50 ([3]; 144 h) was 4830 nM.
